Measurements as given in patent publication US10344279B2, “Methods for the prevention and the treatment of extracapillary glomerulonephritis” (INSERM (Institut National de la Sante et de la Recherche …, priority 2014, dated 2019).
“Also recorded” adds a separate entry of the source.

B1: HB-EGF: heparin-binding epidermal growth factor-like growth factor, EGFR ligand (Preprotech) (protein, UniProt Q99075 63-148, looked up)
Heparin-binding EGF-like …: DLQEADLDLLRVTLSSKPQALATPNKEEHGKRKKKGKGLGKKRDPCLRKYKDFCIHGECKYVKELRAPSCICHPGYHGERCHGLSL

Legend:
phospho-STAT3 (Tyr705) [1] = experiment: Western blot of phospho-STAT3 in glomeruli / kidney cortex of NTS-challenged mice; assay type: in vivo; settings: erlotinib 10 mg/kg/day; NTS-challenged mice
Procedure: Podocyte-specific disruption of Stat3 mice were generated by crossing podocin-Cre positive mice (63) with Stat3 floxed mice (64) on C57BL6/J background. Their age-matched littermates with no deletion of Stat3 in any cells are considered as controls. […] Stattic (25 mg/kg) was administered in i.p. way every other day for 10 days. 10 weeks old 129S2/SvPasCr male mice were randomly treated with Stattic and were compared to vehicle-treated (DMSO) littermates.
The glomerulonephritis was induced on male mice (10-12 weeks of age) by intravenous injection of 15 μL of sheep anti-glomerular basement membrane (GBM) nephrotoxic serum (NTS), which was diluted with 85 μL of sterile phosphate buffer solution. Serum injections were repeated twice (on days 2 and 3) at 6 μL/g of body weight and 7 μL/g respectively.
Mouse kidneys were extracted, minced, and digested in 2 mg/mL collagenase I solution (Gibco) in RPMI 1640 (Invitrogen) at 37° C. for 3 minutes, then filtered through a 70-μm cell strainer and one more through a 40-μm cell strainer. […] Podocyte outgrowth area was quantified at day 4 using ImageJ software.
After extraction from glomeruli or podocytes with lysis buffer, proteins were quantified by BCA protein assay kit (iNtRON Biotechnology). […] Protein loading was monitored by using the rat anti-tubulin antibody (Abeam). […] Densitometric analysis with ImageJ software was used for quantification.

phospho-EGFR (Tyr1068) = experiment: Western blot of phospho-EGFR in kidney cortex of NTS-challenged mice; assay type: in vivo; settings: erlotinib 10 mg/kg/day
Procedure: After extraction from glomeruli or podocytes with lysis buffer, proteins were quantified by BCA protein assay kit (iNtRON Biotechnology). […] Membranes were incubated with the appropriate primary antibodies: rabbit anti-phospho-EGFR (Tyr1068) (Cell Signaling Technology), rabbit anti-phospho-STAT3 (Tyr705) (Cell Signaling Technology), goat anti-p57 (Santa Cruz Biotechnology). Protein loading was monitored by using the rat anti-tubulin antibody (Abeam). Secondary antibodies were donkey-anti rabbit HRP and donkey-anti rabbit HRP (GE Healthcare Life Sciences). […] Densitometric analysis with ImageJ software was used for quantification.

phospho-STAT3 (Tyr705) [2] = experiment: Western blot of phospho-STAT3 in primary culture of podocytes; assay type: cell-based, mouse; settings: 16 hours; AG1478 1 μM, anti-mIL-6 antibody 10 μg/mL, HB-EGF 10 ng/mL
Procedure: After 4 days of primary culture, podocytes were trypsinized then plated into μ-Dish 35 mm high with Culture-Insert (Ibidi). Ibidi's wounding inserts were used for cell migration studies. The coverage of the 500-μm gap was assessed after 12 hours of culture and podocyte migration area was quantified using ImageJ software. The effects of HB-EGF (10 ng/mL, Preprotech) or AG1478 (1 μM, Calbiochem) or anti-mIL-6 monoclonal antibody MP5-20F3 (10 μg/mL, eBiosciences) or Stattic (2 μM, Calbiochem) on differentiated podocytes was applied during 16 hours. After stimulation, podocytes were scrapped in Phosphosafe buffer for protein extraction or in RLT buffer for total RNA extraction.
After extraction from glomeruli or podocytes with lysis buffer, proteins were quantified by BCA protein assay kit (iNtRON Biotechnology). Samples were resolved on 4-12% Bis-Tris Criterion XT gels (Bio-Rad) then transferred to a polyvinylidene difloride membrane. Membranes were incubated with the appropriate primary antibodies: rabbit anti-phospho-EGFR (Tyr1068) (Cell Signaling Technology), rabbit anti-phospho-STAT3 (Tyr705) (Cell Signaling Technology), goat anti-p57 (Santa Cruz Biotechnology). Protein loading was monitored by using the rat anti-tubulin antibody (Abeam). […] Densitometric analysis with ImageJ software was used for quantification.

Molecule	STAT3 phosphorylation in podocytes (phospho-STAT3 (Tyr705) [1])	EGFR phosphorylation in the kidney cortex (phospho-EGFR (Tyr1068))	STAT3 phosphorylation (Tyr705) in cultured primary podocytes (phospho-STAT3 (Tyr705) [2])
C#Cc1cccc(Nc2ncnc3cc(OCCOC)c(OCCOC)cc23)c1 [erlotinib]	blunted	efficiently blocked	–
COc1cc2ncnc(Nc3cccc(Cl)c3)c2cc1OC [AG1478]	–	–	blunted; also recorded: decreased
B1	–	–	enhanced
